According to patent US20080171783A1, “COMPOSITIONS AND METHODS FOR TREATING HYPERPROLIFERATIVE DISEASE” (Migenix Inc., priority 2006, published 2008):

What was measured:
CCRF-CEM = experiment: NCI In Vitro Cell Line Screening (SRB); format: cell-based, human; details: Leukemia, 48 h; for GI50 / CC50: Homo sapiens; for CC50: read-out: LC50 (the source's name)
HL-60(TB) = experiment: NCI In Vitro Cell Line Screening (SRB); format: cell-based, human; details: Leukemia, 48 h; for GI50: Homo sapiens
RPMI-8226 = experiment: NCI In Vitro Cell Line Screening (SRB); format: cell-based, human; details: RPMI-8226, Leukemia, 48 h
SR = experiment: NCI In Vitro Cell Line Screening (SRB); format: cell-based; details: Leukemia, 48 h
EKVX = experiment: NCI In Vitro Cell Line Screening (SRB); format: cell-based, human; details: Non-Small Cell Lung Cancer, 48 h; for GI50 / LC50: Homo sapiens
HOP-62 = experiment: NCI In Vitro Cell Line Screening (SRB); format: cell-based, human; details: HOP-62, Non-Small Cell Lung Cancer, 48 h
NCI-H23 = experiment: NCI In Vitro Cell Line Screening (SRB); format: cell-based; details: NCI-H23, Non-Small Cell Lung Cancer, 48 h
NCI-H460 = experiment: NCI In Vitro Cell Line Screening (SRB); format: cell-based, human; details: NCI-H460, Non-Small Cell Lung Cancer, 48 h; for GI50 / CC50: Homo sapiens; for CC50: read-out: LC50 (the source's name)
NCI-H522 = experiment: NCI In Vitro Cell Line Screening (SRB); format: cell-based, human; details: NCI-H522, Non-Small Cell Lung Cancer, 48 h
SF-268 = experiment: NCI In Vitro Cell Line Screening (SRB); format: cell-based, human; details: SF-268, CNS Cancer, 48 h; for GI50 / LC50: Homo sapiens
U251 = experiment: NCI In Vitro Cell Line Screening (SRB); format: cell-based, human; details: U251, CNS Cancer, 48 h; for GI50 / CC50: Homo sapiens, U-251; for CC50: read-out: LC50 (the source's name)
UACC-62 = experiment: NCI In Vitro Cell Line Screening (SRB); format: cell-based, human; details: UACC-62, Melanoma, 48 h; for GI50 / CC50: Homo sapiens; for CC50: read-out: LC50 (the source's name)
IGROV1 = experiment: NCI In Vitro Cell Line Screening (SRB); format: cell-based; details: IGROV1, Ovarian Cancer, 48 h; for CC50: read-out: LC50 (the source's name)
UO-31 = experiment: NCI In Vitro Cell Line Screening (SRB); format: cell-based, human; details: UO-31, Renal Cancer, 48 h; for GI50 / CC50: Homo sapiens; for CC50: read-out: LC50 (the source's name)
MCF7 = experiment: NCI In Vitro Cell Line Screening (SRB); format: cell-based, human; details: MCF7, Breast Cancer, 48 h; for GI50 / CC50: Homo sapiens; for CC50: read-out: LC50 (the source's name)
MDA-MB-231/ATCC = experiment: NCI In Vitro Cell Line Screening (SRB); format: cell-based, human; details: Breast Cancer, 48 h; for GI50 / CC50: Homo sapiens; for CC50: read-out: LC50 (the source's name)
BT-549 = experiment: NCI In Vitro Cell Line Screening (SRB); format: cell-based, human; details: BT-549, Breast Cancer, 48 h; for GI50 / CC50: Homo sapiens; for CC50: read-out: LC50 (the source's name)
[1] = system: 5 Leukemia and 5 Colon Cancer Cell Lines; experiment: Cell viability by XTT, cell line panel; format: cell-based; details: for Range (Percentage of Control over the same 10 cell lines): 10 μM, lowest to highest of the ten cell lines; for viability at 10 µM: average of the ten Percentage of Control values, read-out: ARF (Average Response Factor, Average Percentage of Control)
Method in brief: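 Leukemia and colon cancer lines in exponential growth were exposed to compounds for four days at 37 °C/5% CO2, with colon lines allowed overnight adherence beforehand. Viability read by XTT/PMS reduction (4 h) at 450/650 nm; percent of control at 10 μM averaged over ten lines as ARF.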

MDA-MB-468 = experiment: NCI In Vitro Cell Line Screening (SRB); details: for TGI: MDA-MB-468, Breast Cancer, 48 h
[2] = Homo sapiens, read-out: LC50 (the source's name)

SMILES: Cc1ccc(NC(=O)[C@@H](CCCCN)NC(=O)Nc2ccc3c(c2)Cc2ccccc2-3)cc1 [Compound 173, (R)-6-AMINO-2-[3-(9H-FLUOREN-2-YL)-UREIDO]-HEXANOIC ACID P-TOLYLAMIDE]
- GI50 (CCRF-CEM): 1.97 µM
- CC50 (CCRF-CEM): > 100 µM
- TGI (CCRF-CEM): 5.15 µM
- GI50 (HL-60(TB)): 1.77 µM
- TGI (HL-60(TB)): 3.79 µM
- GI50 (RPMI-8226; Homo sapiens): 1.59 µM
- CC50 (RPMI-8226; [2]): > 100 µM
- TGI (RPMI-8226): 4.87 µM
- GI50 (SR; Homo sapiens): 1.3 µM
- TGI (SR): 3.41 µM
- GI50 (EKVX): 1.19 µM
- LC50 (EKVX): > 100 µM
- TGI (EKVX): 46.2 µM
- TGI (HOP-62): 3.79 µM
- GI50 (HOP-62; Homo sapiens): 1.88 µM
- GI50 (NCI-H23; Homo sapiens): 3.45 µM
- LC50 (concentration giving 50% net cell kill) (NCI-H23; Homo sapiens): > 100 µM
- TGI (NCI-H23): 19.6 µM
- GI50 (NCI-H460): 1.86 µM
- CC50 (NCI-H460): 6.33 µM
- TGI (NCI-H460): 3.43 µM
- GI50 (NCI-H522; Homo sapiens): 4.15 µM
- LC50 (NCI-H522; Homo sapiens): > 100 µM
- TGI (NCI-H522): 23.5 µM
- GI50 (SF-268): 7.37 µM
- LC50 (SF-268): 51 µM
- TGI (SF-268): 21.8 µM
- GI50 (U251): 1.49 µM
- CC50 (U251): 5.3 µM
- TGI (U251): 2.80 µM
- GI50 (UACC-62): 1.15 µM
- CC50 (UACC-62): 6.52 µM
- TGI (UACC-62): 2.74 µM
- GI50 (IGROV1; Homo sapiens, IGROV-1): 3.56 µM
- CC50 (IGROV1; Homo sapiens, IGROV-1): 81 µM
- TGI (IGROV1): 17.9 µM
- GI50 (UO-31): > 100 µM
- CC50 (UO-31): > 100 µM
- TGI (UO-31): >100 µM
- GI50 (MCF7): 1.45 µM
- CC50 (MCF7): 5.29 µM
- TGI (MCF7): 2.77 µM
- TGI (MDA-MB-231/ATCC): 2.57 µM
- GI50 (MDA-MB-231/ATCC): 1.26 µM
- CC50 (MDA-MB-231/ATCC): 5.24 µM
- TGI (BT-549): 26.9 µM
- GI50 (BT-549): 11.7 µM
- CC50 (BT-549): 61.6 µM
- Range (Percentage of Control over the same 10 cell lines) [1]: 4.3 to 108.6%
- viability at 10 µM [1]: 76.8%
- GI50 (MDA-MB-468; Homo sapiens, MDA-MB-468, 48 h): 1.66 µM
- CC50 (MDA-MB-468; Homo sapiens, MDA-MB-468, 48 h, read-out: LC50): 8.31 µM
- TGI (MDA-MB-468): 3.72 µM

SMILES: CC(C)(C)c1ccc(NC(=O)[C@H](CCCCN)NC(=O)OCC2c3ccccc3-c3ccccc32)cc1 [Compound 105, (S)-[5-AMINO-1-(4-TERT-BUTYL-PHENYLCARBAMOYL)-PENTYL]-CARBAMIC ACID 9H-FLUOREN-9-YLMETHYL ESTER]
- GI50 (CCRF-CEM): 1.69 µM
- CC50 (CCRF-CEM): 6.47 µM
- TGI (CCRF-CEM): 3.31 µM
- GI50 (HL-60(TB)): 1.54 µM
- TGI (HL-60(TB)): 3.47 µM
- GI50 (RPMI-8226; Homo sapiens): 1.71 µM
- TGI (RPMI-8226): 3.78 µM
- GI50 (SR; Homo sapiens): 0.403 µM
- CC50 (SR; [2]): > 100 µM
- GI50 (EKVX): 21 µM
- LC50 (EKVX): 90 µM
- TGI (EKVX): 43.5 µM
- TGI (HOP-62): 3.87 µM
- GI50 (HOP-62; Homo sapiens): 2.18 µM
- CC50 (HOP-62; [2]): 6.85 µM
- LC50 (concentration giving 50% net cell kill) (NCI-H23; Homo sapiens): 5.47 µM
- TGI (NCI-H23): 1.95 µM
- GI50 (NCI-H460): 1.13 µM
- CC50 (NCI-H460): 5.37 µM
- TGI (NCI-H460): 2.47 µM
- GI50 (NCI-H522; Homo sapiens): 2.1 µM
- TGI (NCI-H522): 4.43 µM
- GI50 (SF-268): 17 µM
- LC50 (SF-268): 58.3 µM
- TGI (SF-268): 31.5 µM
- GI50 (U251): 4.74 µM
- CC50 (U251): 48.3 µM
- TGI (U251): 17.3 µM
- GI50 (UACC-62): 13.7 µM
- CC50 (UACC-62): 58.2 µM
- TGI (UACC-62): 28.2 µM
- CC50 (IGROV1; Homo sapiens, IGROV-1): 6.97 µM
- TGI (IGROV1): 3.11 µM
- GI50 (UO-31): 1.58 µM
- CC50 (UO-31): 6.76 µM
- TGI (UO-31): 3.27 µM
- GI50 (MCF7): 0.546 µM
- CC50 (MCF7): 4.75 µM
- TGI (MCF7): 1.91 µM
- TGI (MDA-MB-231/ATCC): 26.8 µM
- GI50 (MDA-MB-231/ATCC): 11.1 µM
- CC50 (MDA-MB-231/ATCC): 64.7 µM
- TGI (BT-549): 50.6 µM
- GI50 (BT-549): 25.3 µM
- CC50 (BT-549): > 100 µM
- Range (Percentage of Control over the same 10 cell lines) [1]: 0 to 110.8%
- viability at 10 µM [1]: 53.4%
- GI50 (MDA-MB-468; Homo sapiens, MDA-MB-468, 48 h): 1.46 µM
- TGI (MDA-MB-468): 3.27 µM
